Bridge positions count the residues as written; N and C are the ends. Peptide text beside a SMILES is read from it.
Columns and labels:
[1] = test system: C. albicans 53264 biofilms; experiment: Biofilm XTT metabolic assay; type: cell-based; settings: pre-adhesion, 2 h adherent and 24 h mature biofilms
Method: The antifungal activities of RTD-1, caspofungin and fluconazole were evaluated against biofilms of C. albicans SC5314 and 53264 essentially as described by Pierce et al.[67]. Briefly, biofilms established for 0 h (preadhesion), 2 h (adherent), or 24 h (mature) were developed by adding 1 × 10^5 yeast cells in 50 or 100 µl of RPMI-1640 to wells of flat-bottom 96-well microtiter plates (Costar, Corning, NY). Fifty or 100 µl aliquots of serial 2-fold dilutions of peptide or antifungal drugs were added to wells in triplicate and incubated for 24 h or 48 h prior to analysis of biofilm metabolic activities. Concentrations of reagents used were as follows: RTD-1 - 0.09 – 100 µg/ml (0.05–48 µM), Fluco – 1–250 µg/ml (3.3–816.3 µM); Caspo- 0.003–8 µg/ml ([…]–7.3 µM). Analysis of the effect of each agent on Candida biofilms was performed using an XTT colorimetric assay. One hundred µl of 1 µM XTT/menadione added to each biofilm well, plates were incubated in the dark for 3 h at 37 °C, and 80 µl of supernatant was transferred to a new 96-well flat-bottom microtiter plate (Greiner Bio-one, Monroe, NC). Absorbance was measured at 490 nm on a SpectraMax® i3x (Molecular Devices). Readings were plotted as average of triplicates after subtracting the corresponding values for negative controls (XTT/menadione only).

[2] = cited from earlier work
[3] = test system: blood neutrophils, monocytes and inflammatory cytokines; experiment: Hematology and plasma cytokine analyses in naive and candidemic mice; type: in vivo
Text: EDTA-anticoagulated blood was collected aseptically by terminal cardiac puncture and analyzed for complete blood cell count using a HemaVet 950 FS hematology analyzer (Drew Scientific). Plasma cytokine levels plasma were quantified using a mouse-specific MILLIPLEX MAP kit (Millipore) as described.

[4] = candidemic mice, single 5 mg/kg i.p., 7 days p.i.
[5] = long term survivors, day 30 p.i.

Compound: CC[C@H](C)[C@@H]1NC(=O)[C@@H]2CSSC[C@H](NC(=O)[C@H](CCCNC(=N)N)NC(=O)[C@@H]3CSSC[C@H](NC1=O)C(=O)N[C@@H]([C@@H](C)O)C(=O)N[C@@H](CCCNC(=N)N)C(=O)NCC(=O)N[C@@H](Cc1ccccc1)C(=O)N3)C(=O)N[C@@H](CC(C)C)C(=O)N[C@H]1CSSC[C@H](NC(=O)[C@H](C(C)C)NC(=O)CNC(=O)[C@H](CCCNC(=N)N)NC(=O)[C@H](CCCNC(=N)N)NC1=O)C(=O)N[C@@H](CCCNC(=N)N)C(=O)N2 [RTD-1, Rhesus theta (θ) defensin-1] (cyclo(GFCRCLCRRGVCRCICTR); disulfide 3-16, 5-14, 7-12 (inferred); ring closure inferred)
- biofilm inhibition (XTT) [1]: inhibited biofilm formation
- stability in serum and plasma [2]: highly stable
- blood neutrophil counts ([3]; candidemic mice (SC5314), single 5 mg/kg i.p. at T = 0, 4 h p.i.): significantly (P = 0.008) increased blood neutrophil counts
- blood neutrophil counts ([3]; candidemic mice, single 5 mg/kg i.p. at T = 0, day 7, vs saline): significantly (P = 0.0002) lower
- IL-10 or IL-6 levels [3, 4]: no effect
- blood proinflammatory cytokines TNF, IL-1β and IL-17 [3, 4]: significant reduction
- circulating granulocytes [3, 5]: homeostatic normalization of circulating granulocytes
- levels of TNF, IL-10 and IL-6 [3, 5]: normalized to those of uninfected controls
- blood cytokine levels ([3]; naive mice): did not alter the levels of these cytokines
- increase of blood neutrophils ([3]; naive mice, single 5 mg/kg i.p., 4 h, P = 0.32): 2.3 fold
